Assay results as given in US8163793B2, “Proline derivatives” (Hoffman-La Roche Inc., priority 2009, dated 2012).
Counter-ions that a name gives are not always drawn.

What was measured:
Cathepsin S = Cathepsin S (UniProt P25774); test: Cathepsin enzyme inhibition assay (fluorogenic peptide substrate Z-Val-Val-Arg-AMC), Cathepsin S; assay type: biochemical, human and mouse; conditions: enzyme 1 nM, substrate 20 μM, pH 6.5; read-out: CatS IC50
Method in brief: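 Compounds were combined with 1 nM human or mouse enzyme, and substrate then started the reaction. The buffer was potassium phosphate (100 mM, pH 6.5) containing EDTA-Na 5 mM, Triton X-100 0.001% and […] 5 mM.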

Cat L = Cat L (UniProt P07711); test: Cathepsin enzyme inhibition assay (fluorogenic peptide substrate Z-Val-Val-Arg-AMC), Cathepsin L; assay type: biochemical, human and mouse; conditions: enzyme 1 nM, substrate 20 μM, pH 6.5; read-out: CatL IC50
Method in brief: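 Fluorogenic cleavage of Z-Val-Val-Arg-AMC (20 μM) by 1 nM Cat L was monitored at ex 360/em 465 nm for 20 min, the linear phase. The buffer was 100 mM potassium phosphate pH 6.5 with 5 mM EDTA and DTT. IC50 values were derived by standard methods, in μM.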

SMILES	IC50 (Cathepsin S) [nM]	IC50 (Cat L) [nM]
N#CC1(NC(=O)[C@@H]2C[C@@H](S(=O)(=O)c3ccc(N4CCC4)cc3Cl)CN2C(=O)C2(c3ccc(Cl)cc3)CC2)CC1 [Example 328, (2S,4R)-4-(4-Azetidin-1-yl-2-chloro-benzenesulfonyl)-1-[1-(4-chloro-phenyl)-cyclopropanecarbonyl]-pyrrolidine-2-carboxylic acid (1-cyano-cyclopropyl)-amide]	0.16	130
N#CC1(NC(=O)[C@@H]2C[C@@H](S(=O)(=O)c3ccc(-n4ccnc4)cc3C(F)(F)F)CN2)CC1 [Example 20, (2S,4R)-4-(4-Imidazol-1-yl-2-trifluoromethyl-benzenesulfonyl)-pyrrolidine-2-carboxylic acid (1-cyano-cyclopropyl)-amide hydrochloride]	1	≥ 25000
N#CC1(NC(=O)[C@@H]2C[C@@H](S(=O)(=O)c3ccccc3C(F)(F)F)CN2c2nnc(C(F)(F)F)s2)CC1 [Example 335, (2S,4R)-4-(2-Trifluoromethyl-benzenesulfonyl)-1-(5-trifluoromethyl-[1,3,4]thiadiazol-2-yl)-pyrrolidine-2-carboxylic acid (1-cyano-cyclopropyl)-amide]	0.484	≥ 25000
N#CC1(NC(=O)[C@@H]2C[C@@H](S(=O)(=O)c3ccccc3Cl)CN2c2nnc(C(F)(F)F)s2)CC1 [Example 399]	0.98	> 25000
Cc1cc(N2C[C@H](S(=O)(=O)c3ccccc3Cl)C[C@H]2C(=O)NC2(C#N)CC2)n(CCc2ccccc2)n1 [Example 359, (2S,4R)-4-(2-Chloro-benzenesulfonyl)-1-(5-methyl-2-phenethyl-2H-pyrazol-3-yl)-pyrrolidine-2-carboxylic acid (1-cyano-cyclopropyl)-amide]	0.67	1050
N#CC1(NC(=O)[C@@H]2C[C@@H](S(=O)(=O)c3ccccc3Cl)CN2C(=O)C2(c3ccc(C(F)(F)F)cc3)CC2)CC1 [Example 427, (2S,4R)-4-(2-chlorophenylsulfonyl)-N-(1-cyanocyclopropyl)-1-(1-(4-(trifluoromethyl)phenyl)cyclopropanecarbonyl)pyrrolidine-2-carboxamide]	0.51	95
N#CC1(NC(=O)[C@@H]2C[C@@H](S(=O)(=O)c3ccc(OCC(F)(F)F)cc3Cl)CN2C(=O)c2ccccc2C(F)(F)F)CC1 [Example 177, (2S,4R)-4-[2-Chloro-4-(2,2,2-trifluoro-ethoxy)-benzenesulfonyl]-1-(2-trifluoromethyl-benzoyl)-pyrrolidine-2-carboxylic acid (1-cyano-cyclopropyl)-amide]	0.29	5830
Cc1ccc(=O)n(-c2ccc(S(=O)(=O)[C@H]3CN[C@H](C(=O)NC4(C#N)CC4)C3)c(C(F)(F)F)c2)n1 [Example 23, (2S,4R)-4-[4-(3-M ethyl-6-oxo-6H-pyridazin-1-yl)-2-trifluoromethyl-benzenesulfonyl]-pyrrolidine-2-carboxylic acid (1-cyano-cyclopropyl)-amide hydrochloride]	0.9	≥ 25000
CC(C)(C)OC(=O)N1C[C@H](S(=O)(=O)c2ccccc2Cl)C[C@H]1C(=O)NC1(C#N)CCC1 [Example 34, (2S,4R)-4-(2-Chloro-benzenesulfonyl)-2-(1-cyano-cyclobutylcarbamoyl)-pyrrolidine-1-carboxylic acid tert-butyl ester]	766	≥ 25000
N#CC1(NC(=O)[C@@H]2C[C@@H](S(=O)(=O)c3ccc(OCC(F)(F)F)cc3Cl)CN2CC2(c3ccc(Cl)cc3)CC2)CC1 [Example 365, (2S,4R)-1-[1-(4-Chloro-phenyl)-cyclopropylmethyl]-4-[2-chloro-4-(2,2,2-trifluoro-ethoxy)-benzenesulfonyl]-pyrrolidine-2-carboxylic acid (1-cyano-cyclopropyl)-amide]	240	≥ 25000
